The series has as its system patients with advanced solid tumors. The experiment in a line: Phase I dose escalation: MTD and DLT of oral once-daily apatinib. Format: in vivo. Here is the method:
The phase I study was designed in accordance with the Chinese State Food and Drug Administration (SFDA) recommendations (Guidance for Industry, 2005). PK evaluations were to be performed for single-dosing and multiple-dosing of which the dose levels were determined after completion of dose-escalation. Three dose levels (low, intermediate and high dose) for single-dosing and one dose level (the recommended dose for phase II) for multiple-dosing study, between 8 to 12 participants for each dose levels, were required to meet the SFDA guidance. A cross-over design to evaluate the effects of food intake was incorporated into the single-dosing assessment, also meeting the SFDA requirement, but data will be presented separately.
Apatinib was provided by Advenchen Laboratories, LLC (Northridge, CA, USA) as capsule to be administered orally daily. A safe starting dose was determined in accordance with SFDA recommendations (Guidance for Industry 2005) following a previously established maximum-tolerated dose (MTD) in dogs for YN968D1 of above 30 mg/kg. Thus, in compliance with the SFDA's recommendation, the starting dose was determined to be 250 mg/day, corresponding to one-fourth of the MTD in dogs. (ClinicalTrials.gov number: NCT00633490).
Dose-escalation cohorts enrolled three to six patients. Intrapatient dose escalation was not allowed. […]

Each structure is given as a SMILES string.

Consider `N#CC1(c2ccc(NC(=O)c3cccnc3NCc3ccncc3)cc2)CCCC1` [apatinib], for which the “recommended (phase II) dose” value (human, in vivo, 4 weeks) is given as 750 mg. The “maximum tolerated dose (MTD)” value (oral, once daily, patients) was 850 mg.

The record behind these values is paper PMC2984425, “Safety and pharmacokinetics of novel selective vascular endothelial growth factor receptor-2 inhibitor YN968D1 in patients with advanced malignancies” (BMC Cancer, 2010).
